These results are taken from patent publication US6998415B2, “Substituted sulfonylphenylheterocycles as cyclooxygenase-2 and 5-lipoxygenase inhibitors” (Pharmacia Corporation, priority 1996, dated 2006).

For data set [1], the system named is rat paw edema (carrageenan foot edema). Put plainly: Rat carrageenan foot pad edema test. In kind it is in vivo, rat (male Sprague-Dawley). Particulars: dosed orally 1 h before carrageenan, foot volume 3 h after carrageenan. How it is done:
Rat Carrageenan Foot Pad Edema Test
The carrageenan foot edema test was performed with materials, reagents and procedures essentially as described by winter, et al., (Proc. Soc. Exp. Biol. Med., 111, 544 (1962)). Male Sprague-Dawley rats were selected in each group so that the average body weight was as close as possible. Rats were fasted with free access to water for over sixteen hours prior to the test. The rats were dosed orally (1 mL) with compounds suspended in vehicle containing 0.5% methylcellulose and 0.025% surfactant, or with vehicle alone. One hour later a subplantar injection of 0.1 mL of 1% solution of carrageenan/sterile 0.9% saline was administered and the volume of the injected foot was measured with a displacement plethysmometer connected to a pressure transducer with a digital indicator. Three hours after the injection of the carrageenan, the volume of the foot was again measured. The average foot swelling in a group of drug-treated animals was compared with that of a group of placebo-treated animals and the percentage inhibition of edema was determined (Otterness and Bliven, Laboratory Models for Testing NSAIDs, in Non-steroidal Anti-Inflammatory Drugs, (J. Lombardino, ed. 1985)).
A general note: The carrageenan paw model is a standard test of acute inflammation.

A further data set addresses T1, COX-2 (UniProt P35354).
T1 sequence (P35354 1-604): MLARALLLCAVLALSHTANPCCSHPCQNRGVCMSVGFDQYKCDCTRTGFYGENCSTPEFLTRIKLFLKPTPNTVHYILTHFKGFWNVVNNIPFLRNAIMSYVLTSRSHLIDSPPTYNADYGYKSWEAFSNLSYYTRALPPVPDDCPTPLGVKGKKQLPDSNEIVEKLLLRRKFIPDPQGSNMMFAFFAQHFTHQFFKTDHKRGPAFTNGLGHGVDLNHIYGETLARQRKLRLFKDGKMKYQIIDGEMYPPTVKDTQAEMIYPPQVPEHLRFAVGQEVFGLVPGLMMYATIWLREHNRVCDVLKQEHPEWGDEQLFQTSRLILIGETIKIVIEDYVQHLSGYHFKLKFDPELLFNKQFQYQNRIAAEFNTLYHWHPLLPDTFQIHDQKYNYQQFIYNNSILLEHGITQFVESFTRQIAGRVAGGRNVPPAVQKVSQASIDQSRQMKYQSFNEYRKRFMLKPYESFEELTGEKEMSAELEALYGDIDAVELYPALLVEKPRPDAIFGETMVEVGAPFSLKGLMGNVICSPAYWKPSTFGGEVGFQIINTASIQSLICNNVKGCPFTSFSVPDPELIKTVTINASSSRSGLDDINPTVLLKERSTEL
Briefly: Assay for COX-2 activity in vitro (PGE2 ELISA, recombinant enzyme). The format is biochemical, human or murine. Particulars: recombinant COX-2, arachidonic acid 10 μM, pre-incubation 10–20 minutes. How it is done:
Evaluation of COX-1 and COX-2 Activity in vitro
The COX-2 inhibit on activity of the compounds or this invention illustrated in the Examples was determined by the following methods. a. Preparation of Recombinant COX Baculoviruses
(§1) Recombinant COX-1 and COX-2 were prepared as described by Gierse et al, [J. Biochem., 305, 479–84 (1995)]. A 2.0 kb fragment containing the coding region of either human or murine COX-1 or human or murine COX-2 was cloned into a BamHI site of the baculovirus transfer vector pVL1393 (Invitrogen) to generate the baculovirus transfer vectors for COX-1 and COX-2 in a manner similar to the method of D. R. O'Reilly et al (Baculovirus Expression Vectors: A Laboratory Manual (1992)). Recombinant baculoviruses were isolated by transfecting 4 μg of baculovirus transfer vector DNA into SF9 insect cells (2×10^8) along with 200 ng of linearized baculovirus plasmid DNA by the calcium phosphate method. See M. D. Summers and G. E. Smith, A Manual of Methods for Baculovirus Vectors and Insect Cell Culture Procedures, Texas Agric. Exp. Station Bull. 1555 (1987). Recombinant viruses were purified by three rounds of plaque purification and high titer (10^7–10^8 pfu/ml) stocks of virus were prepared. For large scale production, SF9 insect cells were infected in 10 liter fermentors (0.5×10^6/ml) with the recombinant baculovirus stock such that the multiplicity of infection was 0.1. After 72 hours the cells were centrifuged and the cell pellet homogenized in Tris/Sucrose (50 mM: 25%, pH 8.0) containing 1% 3-[(3-cholamidopropyl)dimethylammonio]-1-propanesulfonate (CHAPS). The homogenate was centrifuged at 10,000×G for 30 minutes, and the resultant supernatant was stored at −80° C. before being assayed for COX activity. […]
(§2) b. Assay for COX-1 and COX-2 Activity
(§3) COX activity was assayed as PGE2 formed/μg protein/time using an ELISA to detect the prostaglandin released. CHAPS-solubilized insect cell membranes containing the appropriate COX enzyme were incubated in a potassium phosphate buffer (50 mM, pH 8.0) containing epinephrine, phenol, and heme with the addition of arachidonic acid (10 μM). Compounds were pre-incubated with the enzyme for 10–20 minutes prior to the addition of arachidonic acid. Any reaction between the arachidonic acid and the enzyme was stopped after ten minutes at 37° C./room temperature by transferring 40 μl of reaction mix into 160 μl ELISA buffer and 25 μM indomethacin. The PGE2 formed was measured by standard ELISA technology (Cayman Chemical).
(In general: ELISA stands for enzyme-linked immunosorbent assay.)

Another data set addresses COX-1 (UniProt P23219). Briefly: Assay for COX-1 activity in vitro (PGE2 ELISA, recombinant enzyme). The format is biochemical, human or murine. Particulars: recombinant COX-1, arachidonic acid 10 μM, pre-incubation 10–20 minutes. The procedure: Evaluation of COX-1 and COX-2 Activity in vitro a. Preparation of Recombinant COX Baculoviruses
as §1, §2, §3

The target of the next data set is T2, 5-lipoxygenase (5-LO) (Homo sapiens, UniProt P09917).
T2 construct: calcium ionophore-induced Leukotriene B4 (LTB4) production in human whole blood; endogenous in cells; host or cells: human whole blood (healthy donors), diluted 1:4 in RPMI 1640
T2 sequence (P09917 1-674): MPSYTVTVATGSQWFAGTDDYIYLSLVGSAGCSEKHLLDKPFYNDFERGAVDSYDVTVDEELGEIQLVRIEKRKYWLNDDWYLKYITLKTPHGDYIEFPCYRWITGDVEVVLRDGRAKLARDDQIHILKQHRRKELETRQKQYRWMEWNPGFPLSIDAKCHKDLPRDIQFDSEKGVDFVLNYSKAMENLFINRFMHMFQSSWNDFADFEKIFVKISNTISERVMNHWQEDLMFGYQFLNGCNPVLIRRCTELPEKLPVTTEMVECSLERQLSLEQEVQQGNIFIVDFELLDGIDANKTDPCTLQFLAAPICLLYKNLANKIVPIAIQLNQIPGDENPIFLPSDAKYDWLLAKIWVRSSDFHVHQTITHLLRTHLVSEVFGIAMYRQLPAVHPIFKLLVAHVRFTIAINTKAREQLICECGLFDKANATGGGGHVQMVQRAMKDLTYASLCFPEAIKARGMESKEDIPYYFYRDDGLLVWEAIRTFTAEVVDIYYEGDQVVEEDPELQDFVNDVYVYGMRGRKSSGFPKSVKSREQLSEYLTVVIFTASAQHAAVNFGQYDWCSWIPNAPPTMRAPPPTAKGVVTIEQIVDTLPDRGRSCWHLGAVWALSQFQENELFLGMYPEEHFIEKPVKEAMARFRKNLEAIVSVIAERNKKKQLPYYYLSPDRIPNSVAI
Put plainly: Assay for 5-lipoxygenase activity: calcium ionophore-induced LTB4 production in human whole blood. Particulars: A-23187 (20 μg/ml)-induced LTB4 in human whole blood; mean IC50. The format is cell-based. How it is done: Assay for 5-Lipoxygenase Activity
The 5-lipoxygenase (5-LO) activity of the compounds were determined by the calcium ionophore-induced Leukotriene B4 (LTB4) production in human whole blood. Venous blood was collected from healthy human donors using heparin as an anti-coagulant. Human blood samples (0.2 ml of a 1:4 dilution in RPMI 1640 medium) were incubated in 96-well culture plates for 15 minutes at 37° C. with test compounds dissolved in ethanol (EtOH; final concentration<1%), or vehicle. Typically 7 concentrations of test compounds were examined in duplicate. A-23187 [Sigma] was added to the blood to a final concentration of 20 μg/ml, and the mixtures were incubated for 10 minutes at 37° C. The reaction was stopped by placing the samples on ice. The samples were then centrifuged at 800×g at 4° C. for 10 minutes to pellet the cells, and the supernatants were recovered for quantitation of LTB4 by LISA (Cayman Chemical Co.; sensitivity 3 pg/ml). IC50's were estimated from a four parameter logistic model with two parameters fixed, the minimum (0% inhibition) and maximum (100% inhibition). The IC50 value is the concentration that produces 50% inhibition between the fixed values of the minimum and maximum. Data is reported as the mean IC50 for each compound.

A word on the IC50: it is the concentration that gives 50% inhibition. `COC1(c2cc(F)cc(OCc3nc(-c4ccc(F)cc4)c(-c4ccc(S(C)(=O)=O)cc4)o3)c2)CCOCC1` [Example 3, 4-(4-Fluorophenyl)-2-[[3-fluoro-5-(3,4,5,6-tetrahydro-4-methoxy-2H-pyran-4-yl)phenoxy)methyl]-5-(4-(methylsulfonyl)phenyl)oxazole]: the “RAT PAW EDEMA % Inhibition @ 10 mg/kg body weight” value in data set [1] came to 15%. Besides, the IC50 at COX-2 was less than 100 nM; on COX-1, more than 100000 nM; at 5-lipoxygenase (5-LO), 0.02 µM.
By melting point is commonly meant the temperature of the solid-liquid transition. Consider `COC1(c2cc(F)cc(OCc3nc(-c4ccccc4)c(-c4ccc(S(N)(=O)=O)cc4)o3)c2)CCOCC1` [Example 8, 4-[2-[[3-Fluoro-5-(3,4,5,6-tetrahydro-4-methoxypyran-4-yl)phenoxy]methyl]-4-phenyloxazol-5-yl]benzenesulfonamide], for which the melting point is 70 to 80 °C. Besides, on COX-2, the IC50 was less than 100 nM. For the same compound, the IC50 on COX-1 worked out at 1300 nM. For the same compound, the IC50 on 5-lipoxygenase (5-LO) amounted to 0.3 µM.
The like results for `COC1(c2cc(F)cc(OCC#Cc3ccc(Cc4nc(-c5ccccc5)c(-c5ccc(S(N)(=O)=O)cc5)o4)cc3)c2)CCOCC1` [Example 12, 4-[2-[[4-[3-[3-Fluoro-5-(3,4,5,6-tetrahydro-4-methoxypyran-4-yl)phenoxy]-1-propynyl]phenyl]methyl]-4-phenyloxazol-5-yl]benzenesulfonamide] were, in that order, 86 to 100 °C, less than 100 nM, more than 100000 nM and more than 10 µM.
The matching figures for `COC1(c2cccc(CSc3nc(-c4ccccc4)c(-c4ccc(S(N)(=O)=O)cc4)o3)c2)CCOCC1` [Example 21]: 74.7 to 78.5 °C, less than 100 nM, 2600 nM and more than 10 µM.
The matching figures for `COC1(c2cccc(COCc3nc(-c4ccccc4)c(-c4ccc(S(N)(=O)=O)cc4)o3)c2)CCOCC1` [Example 17, 4-[2-[[[3-(3,4,5,6-Tetrahydro-4-methoxypyran-4-yl)phenylmethyl]oxy]methyl]-4-phenyloxazol-5-yl]benzenesulfonamide]: 62.1 to 71.2 °C, 500 nM, more than 100000 nM and 9.8 µM.
